Laboratory results: patent US10106577B2, “Agonists of neurotrophin receptors and their use as medicaments” (BIONURE FARMA, S.L., priority 2010, dated 2018)

Tests used:
[1] = PAMPA model of passive BBB permeability; type: in vitro ADME; details: PAMPA; passive transport; pH 7.4; 18 hrs; read-out: Effective permeability (pe), PAMPA
Description: PAMPA is used as an in vitro model of passive BBB permeability. An artificial membrane immobilized on a filter is placed between a donor and acceptor compartment. At the start of the test, a drug is introduced in the donor compartment. Following the permeation period, the concentration of the drug in the donor and acceptor compartments are measured using UV spectroscopy. Therefore the permeability of any compound with a UV chromophore can be determined by this method.
The tested compound stock solutions were diluted 200-fold in universal buffer at pH 7.4 and added to the donor wells. The filter membrane was coated with PBL in dodecane and the acceptor well was filled with pH 7.4 buffer. The acceptor filter plate was carefully put on the donor plate to form a ‘sandwich’ (consisting of the aqueous donor with test the compound on the bottom, an artificial lipid membrane in the middle, and an aqueous acceptor on the top). The test compound diffused from the donor well through the lipid membrane and into the acceptor well. The ‘sandwich’ was left undisturbed for 18 hrs while the permeation occurred. The concentration of the test compound in the acceptor, the donor, and the reference wells was determined using the UV plate reader. Effective permeability (Pe) of each compound was calculated by using the pION PSR4p software. Samples were analyzed in triplicate and the average of the three runs was reported. Quality control standards were run with each sample set to monitor the consistency of the analysis set.

PC12 cells [2] = assay: Secretagogue activity assay (PC12 differentiation with antibody anti-NGF); type: cell-based
Description: To assess if the tested compounds, G79, G80, and G81, act as secretagogues, inducing neurotrophic activity through the synthesis of NGF, PC12 cells were plated into collagen-coated 24-wells plates with only 2.5% FBS and after 72 hrs the cells were treated with the tested compounds (each one at 100 ng/ml) together with antibody anti-NGF (1 μg/ml, AbCam). After three days of treatment, the differentiation was evaluated. The cell count was done in three randomly selected fields with 100 cells.

PC12 cells [3] = assay: Signalling inhibition assays (PC12 differentiation with LY294002 or PD98059); type: cell-based
Description: To evaluate if the transduction pathway induced by G79, G80, and G81 involves AKT and ERK activation, PC12 cell were treated with the test compounds in the presence of LY294002, an inhibitor of PI3K (an upstream activator of AKT) and PD98059, an inhibitor of MAPK kinase (an upstream activator of ERK). For this purpose, PC12 cells were plated into collagen-coated 24-wells plates with 2.5% FBS and after 72 hrs the cells were treated with the small molecules in combination with LY294002 (Sigma Aldrich, 10 μM) or PD98059 (Sigma Aldrich, 50 μM). NGF (100 ng/ml) was used as control and added alone or in combination with the inhibitors.

PC12 cells [4] = assay: Dose response differentiation assay in PC12 cell line; type: cell-based; details: 100 ng/ml; after 3 days of treatment
Description: Stock of PC12 cultures were maintained in Ham's F12 medium supplemented with 2.5% fetal bovine serum (FBS), 15% of horse serum (HS) and 1% penicillin/streptomycin. The cell culture was maintained in 5% CO2 at 37° C.
PC12 cell differentiation was assessed by treating the cells with all the test compounds (G79, G80, and G81) at different testing concentration (2-20-100 ng/ml and 2-20-50 μg/ml). The cells were first plated into collagen-coated 24-wells plates with 2.5% FBS in the medium to be de-differentiated. After 72 hrs, the test compounds were added and NGF (Sigma Aldrich; 100 ng/ml) as positive control of differentiation. The number of differentiated cells, with neurite processes greater than two cell bodies in length, is counted after 3 days of treatment. The cell count is done in three randomly selected fields with 100 cells.

[5] = test system: retinal ganglion cells (RGC); assay: Glaucoma model, count of retinal ganglion cells; type: in vivo, Sprague Dawley rats; details: first experiment; eye drops, NGF 200, G79 200 and 400 μg/ml
Description: 12 Sprague Dawley rats (4 months of age) were anesthetized with […] and subjected to hypertonic saline solution injection into the episcleral vein of the right eye. Intraocular pressure (IOP) was measured before the operation and was monitored one time a week using a TonoLab for 7 weeks. Treatment with G79 was begun one week after glaucoma induction by topical application at the conjunctive. Two different experiments were performed.
In the first experiment, G79 was dissolved into physiological solution and was used at two different concentration (200 μg/ml and 400 μg/ml). NGF was used as positive control (200 μg/ml) and the physiological solution, used to dissolve all the molecules, was subministered as placebo. The animals were divided into 4 groups (3 animals in each group): glaucoma-G79 200 μg/ml; glaucoma-G79 […]; glaucoma-NGF; glaucoma-placebo. The left eye was used as the control without glaucoma. In both experiments, seven weeks after glaucoma induction, animals were sacrificed by overdose of anaesthetic and their eyes were taken and fixed in 4% of PFA. The eyes were included in paraffin and cut into 20 μm sections to be used for histological studies (hematoxilin-eosin staining). The cell count of the number of retinal ganglion cells (RGC) was performed randomly in ten different fields for each eye.
Rats were injected with a hypertonic solution in the eye that induced high intraocular pressure for five weeks. Animals were treated with eye drops of NGF ([…]), G79 ([…]) or placebo every day for five weeks. Animals with glaucoma and treated with placebo (saline) have a significant decrease in the number of retinal ganglion cells compared with control.
In the second experiment, G79 at the concentration of 200 μg/ml was used. The objective of this second experiment was to compare the efficacy of G79 to Timolol, the most common therapy for glaucoma that works by decreasing the intraocular pressure. Also in this experiment, a combination treatment with G79 and Timolol was performed. […]

PC12 cells [6] = assay: Synergistic activity assay (PC12 differentiation in combination with NGF); type: cell-based; details: NGF alone 100 ng/ml
Description: To evaluate if the small molecules G79, G80, and G81 interfere with the maximal activity of NGF or lead to additive effects, PC12 cells were plated into collagen-coated 24-wells plates with 2.5% FBS and treated after 72 h with the small chemicals (each one at 100 ng/ml) in combination with NGF at the concentration of 100 ng/ml. In the same experiment PC12 cells were treated with the small molecules or NGF alone, as controls. The number of differentiated cells was evaluated after three days of treatment. The cell count was done in three randomly selected fields with 100 cells.

PC12 cells [7] = assay: Receptor activation assay (PC12 differentiation with anti-TrkA antibody); type: cell-based
Description: The hypothesis that G79, G80, and G81 can act through the binding to the extracellular portion of TrkA (binding site) and activate the tyrosine kinase receptor was tested by treating the PC12 cells with the small chemicals in combination with the antibody anti-TrkA or the K252a, a tyrosine kinase inhibitor. For this purpose PC12 cells were plated into collagen-coated 24-wells plates with 2.5% FBS and after 72 hrs were incubated with the small molecules alone or in combination with anti-TrkA antibody (AbCam, 1:2000) or K252a. NGF (100 ng/ml) was used as control and added alone or in combination with anti-TrkA antibody or K252a. The number of differentiated cells was evaluated after three days of treatment. The cell count was done in three randomly selected fields with 100 cells.

NSC-34 cells = assay: In vitro model of ALS, serum deprivation of motoneuron-like cells (MTT); type: cell-based, mouse; details: G-CSF 2 μg/ml; serum deprivation 48 h
Description: Mouse motoneuron-like cells NCS-34 were cultured in DMEM (Gibco) supplemented with 10% heat inactivated FBS and 1% penicillin/streptomycin. The cell culture was maintained in a humidified atmosphere of 95% air and CO2 at 37° C.
The nutritional deprivation stress in motorneurons was conducted as described previously in Masahito T. et al., J. Neuropathol. Exp. Neurol. 65(8):816-825 (2006). To assess the effect of trophic stress condition on ALS, the presence of apoptosis was investigated using serum deprivation. NSC-34 cells were seeded in 24-well poly-lysinated plates at 30,000 cells/well and preincubated for 24 h in DMEM plus 10% FBS with various doses of G79, G80, and G81 (20 ng/ml, 100 ng/ml, 2 μg/ml, 20 μg/ml, 50 μg/ml), and G-CSF (2 μg/ml) or BDNF (20 ng/ml) which both were used as positive controls (Masahito T. et al., ibid; Elliot J. L., Neurobiology of Disease 6:310-320 (1999)). Then, the medium was removed and replaced with fresh DMEM without FBS. After 48 h, cell viability was assayed by MTT assay, as described previously.

NC(=O)N1c2ccccc2C=Cc2ccccc21 [carbamazepine]
Papp at 18 h [1]: 10.3 ×10⁻⁶ cm/s

CC(C)NCC(O)COc1cccc2ccccc12 (stereo not shown) [propanolol]
Papp at 18 h [1]: 11.5 ×10⁻⁶ cm/s

NGF: homodimeric protein from the neurotrophin family; positive control of differentiation and survival
number of differentiated cells for each field (PC12 cells [2]; 100 ng/ml together with antibody anti-NGF (1 μg/ml)): 12.8±6.3
number of differentiated cells for each field (PC12 cells [2]; 100 ng/ml, treatment alone): 20.7±7.1
number of differentiated cells (PC12 cells [3]; plus LY294002 (10 μM), inhibitor of PI3K): 6.8±2.7
number of differentiated cells (PC12 cells [3]; plus PD98059 (50 μM), inhibitor of MAPK kinase): 2.1±1.9
number of differentiated cells (PC12 cells [3]; treatment alone): 20.7±7.1
number of differentiated cells in a field of 100 cells (PC12 cells [4]): 16.1±1.9 cells
protection of retinal ganglion cells (number of RGC vs glaucoma-placebo) [5]: significant protection of the ganglion cells
number of differentiated cells (PC12 cells [6]): 20±7.1
number of differentiated cells (PC12 cells [7]; in combination with anti-TrkA antibody (1:2000)): 12.8±6.3
number of differentiated cells (PC12 cells [7]; treatment alone): 20.7±7.1

B1: G-CSF: positive control (2 μg/ml) in the in vitro model of ALS (protein, UniProt P09919 31-207, looked up)
Granulocyte …: TPLGPASSLPQSFLLKCLEQVRKIQGDGAALQEKLVSECATYKLCHPEELVLLGHSLGIPWAPLSSCPSQALQLAGCLSQLHSGLFLYQGLLQALEGISPELGPTLDTLQLDVADFATTIWQQMEELGMAPALQPTQGAMPAFASAFQRRAGGVLVASHLQSFLEVSYRVLRHLAQP
cell viability, percentage relative to the control without stress (NSC-34 cells): 76.50±8.3%
